Assay results taken from US6610677B2, “Pyrazole compounds useful as protein kinase inhibitors” (Vertex Pharmaceuticals Incorporated, priority 2000, dated 2003).

Legend:
[1] = target: T1, Aurora-2 (Homo sapiens, UniProt O14965); assay: Ki determination for the inhibition of Aurora-2 (coupled enzyme assay); format: biochemical; conditions: 70 nM Aurora-2, peptide LRRASLG, 30° C
T1 sequence (O14965 1-403): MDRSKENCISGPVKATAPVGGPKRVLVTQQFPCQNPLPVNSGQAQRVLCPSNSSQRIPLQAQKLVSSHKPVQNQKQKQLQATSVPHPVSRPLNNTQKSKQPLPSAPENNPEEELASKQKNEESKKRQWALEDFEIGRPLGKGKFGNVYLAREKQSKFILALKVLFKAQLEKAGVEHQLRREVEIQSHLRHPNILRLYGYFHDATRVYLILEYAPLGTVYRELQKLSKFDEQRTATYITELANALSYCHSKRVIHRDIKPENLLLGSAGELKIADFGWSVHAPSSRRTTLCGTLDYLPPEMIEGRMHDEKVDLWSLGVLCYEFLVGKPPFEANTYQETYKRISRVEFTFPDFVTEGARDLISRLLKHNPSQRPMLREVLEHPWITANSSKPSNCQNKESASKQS
Method: Compounds were screened in the following manner for their ability to inhibit Aurora-2 using a standard coupled enzyme assay (Fox et al (1998) Protein Sci 7, 2249).
To an assay stock buffer solution containing 0.1M HEPES 7.5, 10 mM MgCl2, 1 mM DTT, 25 mM NaCl, 2.5 mM phosphoenolpyruvate, […], 30 mg/ml pyruvate kinase, 10 mg/ml lactate dehydrogenase, […], and 800 μM peptide (LRRASLG, American Peptide, Sunnyvale, Calif.) was added a DMSO solution of a compound of the present invention to a final concentration of 30 μM. The resulting mixture was incubated at 30° C. for 10 min. The reaction was initiated by the addition of 10 μL of Aurora-2 stock solution to give a final concentration of 70 nM in the assay. The rates of reaction were obtained by monitoring absorbance at 340 nm over a 5 minute read time at 30° C. using a BioRad Ultramark plate reader (Hercules, Calif.). The Ki values were determined from the rate data as a function of inhibitor concentration.

[2] = target: T2, GSK-3β (AA 1-420) (Homo sapiens, UniProt P49841); assay: Ki determination for the inhibition of GSK-3 (coupled enzyme system); format: biochemical; conditions: 20 μM ATP, 300 μM peptide, 20 nM GSK-3β, 30° C
T2 construct: GSK-3β (AA 1-420)
T2 sequence (P49841 whole entry, the tested form may be a part): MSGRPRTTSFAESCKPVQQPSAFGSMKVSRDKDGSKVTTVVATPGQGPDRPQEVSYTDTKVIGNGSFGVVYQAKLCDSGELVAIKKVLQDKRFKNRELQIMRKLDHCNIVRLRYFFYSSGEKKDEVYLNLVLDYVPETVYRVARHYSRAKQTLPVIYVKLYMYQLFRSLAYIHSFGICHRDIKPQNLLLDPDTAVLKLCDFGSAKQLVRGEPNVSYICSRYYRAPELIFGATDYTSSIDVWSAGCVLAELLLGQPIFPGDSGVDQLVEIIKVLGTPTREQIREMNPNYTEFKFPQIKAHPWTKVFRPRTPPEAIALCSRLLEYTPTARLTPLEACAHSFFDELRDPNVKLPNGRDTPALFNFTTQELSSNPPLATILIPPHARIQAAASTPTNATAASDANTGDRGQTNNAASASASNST
Procedure, shortened: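 Ki values come from reaction rates over 10 min at 30 °C as a function of inhibitor concentration (12-point titration, 0.002–30 μM, 10 min preincubation). GSK-3β (AA 1-420, 20 nM) phosphorylated 300 μM primed peptide with 20 μM ATP; ADP formation followed by coupled NADH oxidation, pH 7.5.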

Structure (SMILES) | Ki [1] [µM] | Ki [2] [µM]
FC(F)(F)c1ccccc1-c1cc2ccccc2c(Nc2n[nH]c3ccccc23)n1 [Compound V-2, (1H-Indazol-3-yl)-[3-(2-trifluoromethyl-phenyl)-isoquinoline-1-yl]-amine] | 1 to 20 | 0.1 to 1
Cc1cc(Nc2nc(-c3ccccc3Cl)nc(C)c2C)n[nH]1 [II-1, [2-(2-Clorophenyl)-5,6-dimethylpyrimidin-4-yl]-(5-Methyl-2H-pyrazol-3-yl)-amine] | 0.1 to 1 | < 0.1
FC(F)(F)c1ccc2[nH]nc(Nc3nc(-c4ccccc4C(F)(F)F)nc4c3CCCC4)c2c1 [II-10, (5-Trifluoromethyl-1H-indazol-3-yl)-[2-(2-trifluoromethyl-phenyl)-5,6,7,8-tetrahydroquinazolin-4-yl]-amine] | 1 to 20 | < 0.1
FC(F)(F)c1ccccc1-c1nc(Nc2n[nH]c3ccccc23)cc(-c2ccccc2)n1 [II-20, (1H-Indazol-3-yl)-[6-phenyl-2-(2-trifluoromethyl-phenyl)-pyrimidin-4-yl]-amine] | 0.1 to 1 | < 0.1
FC(F)(F)c1ccccc1-c1nc(Nc2n[nH]c3ccccc23)cc(-c2ccncc2)n1 [II-21, (1H-Indazol-3-yl)-[6-(pyridin-4-yl)-2-(2-trifluoromethyl-phenyl)-pyrimidin-4-yl]-amine] | 1 to 20 | < 0.1
Cc1cc(Nc2nc(-c3ccccc3C)nc3ccccc23)n[nH]1 [II-33, (5-Methyl-2H-pyrazol-3-yl)-[2-(2-methylphenyl)-quinazolin-4-yl]-amine] | < 0.1 | < 0.1
Cc1cc(Nc2nc(-c3ccc(F)cc3F)nc3ccccc23)n[nH]1 [II-34, [2-(2,4-Difluorophenyl)-quinazolin-4-yl]-(5-methyl-2H-pyrazol-3-yl)-amine] | < 0.1 | < 0.1
Cc1cc(Nc2nc(-c3ccccc3Cl)nc3ccccc23)n[nH]1 [II-36, [2-(2-Chlorophenyl)-quinazolin-4-yl]-(5-methyl-2H-pyrazol-3-yl)-amine] | < 0.1 | < 0.1
COc1ccccc1-c1nc(Nc2cc(C)[nH]n2)c2ccccc2n1 [II-37, [2-(2-Methoxyphenyl)-quinazolin-4-yl]-(5-methyl-2H-pyrazol-3-yl)-amine] | < 0.1 | 
Cc1cc(Nc2nc(-c3c(C)cccc3C)nc3ccccc23)n[nH]1 [II-38, [2-(2,6-Dimethylphenyl)-quinazolin-4-yl]-(5-methyl-2H-pyrazol-3-yl)-amine] | 0.1 to 1 | < 0.1
CC(=O)c1ccccc1-c1nc(Nc2cc(C)[nH]n2)c2ccccc2n1 [II-39, [2-(2-Acetylphenyl)-quinazolin-4-yl]-(5-methyl-2H-pyrazol-3-yl)-amine] | 0.1 to 1 | < 0.1
Cc1cc(Nc2nc(-c3cccc(C)c3C)nc3ccccc23)n[nH]1 [II-40, [2-(2,3-Dimethylphenyl)-quinazolin-4-yl]-(5-methyl-2H-pyrazol-3-yl)-amine] | < 0.1 | < 0.1
Cc1cc(Nc2nc(-c3ccccc3C(F)(F)F)nc3ccccc23)n[nH]1 [II-41, (5-Methyl-2H-pyrazol-3-yl)-[2-(2-trifluoromethylphenyl)-quinazolin-4-yl]-amine] | < 0.1 | < 0.1
CCc1ccccc1-c1nc(Nc2cc(C)[nH]n2)c2ccccc2n1 [II-42, [2-(2-Ethylphenyl)-quinazolin-4-yl]-(5-Methyl-2H-pyrazol-3-yl)-amine] | 0.1 to 1 | < 0.1
FC(F)(F)c1ccccc1-c1nc(Nc2cc[nH]n2)c2ccccc2n1 [II-53, (2H-Pyrazol-3-yl)-[2-(2-trifluoromethylphenyl)-quinazolin-4-yl]-amine] | 0.1 to 1 | < 0.1
Oc1cc(Nc2nc(-c3ccccc3C(F)(F)F)nc3ccccc23)n[nH]1 [II-54, (5-Hydroxy-2H-pyrazol-3-yl)-[2-(2-trifluoromethylphenyl)-quinazolin-4-yl]-amine] | 1 to 20 | < 0.1
FC(F)(F)c1ccccc1-c1nc(Nc2cc(C3CC3)[nH]n2)c2ccccc2n1 [II-55, (5-Cyclopropyl-2H-pyrazol-3-yl)-[2-(2-trifluoromethyl-phenyl)-quinazolin-4-yl]-amine] | < 0.1 | 

Structure (SMILES) | Ki [1] [µM] | Ki [2] [µM]
FC(F)(F)c1ccccc1-c1nc(Nc2n[nH]c3ccccc23)c2ccccc2n1 [II-57, (1H-indazol-3-yl)-[2-(2-trifluoromethyl-phenyl)-quinazolin-4-yl]-amine] | 1 to 20 | < 0.1
Fc1ccc2[nH]nc(Nc3nc(-c4ccccc4C(F)(F)F)nc4ccccc34)c2c1 [II-59, (5-Fluoro-1H-indazol-3-yl)-[2-(2-trifluoromethyl-phenyl)-quinazolin-4-yl]-amine] | 1 to 20 | < 0.1
Cc1ccc2[nH]nc(Nc3nc(-c4ccccc4C(F)(F)F)nc4ccccc34)c2c1 [II-61, (5-Methyl-1H-indazol-3-yl)-[2-(2-trifluoromethyl-phenyl)-quinazolin-4-yl]-amine] | 1 to 20 | < 0.1
Clc1ccccc1-c1nc(Nc2n[nH]c3ccccc23)c2ccccc2n1 [II-63, [2-(2-Chloro-phenyl)-quinazolin-4-yl]-(1H-indazol-3-yl)-amine] | 1 to 20 | < 0.1
FC(F)(F)c1ccc2[nH]nc(Nc3nc(-c4ccccc4C(F)(F)F)nc4ccccc34)c2c1 [II-64, (5-Trifluoromethyl-1H-indazol-3-yl)-[2-(2-trifluoromethyl-phenyl)-quinazolin-4-yl]-amine] | 0.1 to 1 | < 0.1
Cc1ccccc1-c1nc(Nc2n[nH]c3ccccc23)c2ccccc2n1 [II-67, (1H-indazol-3-yl)-[2-(2-methyl-phenyl)-quinazolin-4-yl]-amine] | 1 to 20 | < 0.1
FC(F)(F)c1ccc2c(Nc3nc(-c4ccccc4C(F)(F)F)nc4ccccc34)n[nH]c2c1 [II-69, (6-Trifluoromethyl-1H-indazol-3-yl)-[2-(2-trifluoromethyl-phenyl)-quinazolin-4-yl]-amine] | 1 to 20 | < 0.1
O=[N+]([O-])c1ccc2[nH]nc(Nc3nc(-c4ccccc4C(F)(F)F)nc4ccccc34)c2c1 [II-70, (5-Nitro-1H-indazol-3-yl)-[2-(2-trifluoromethyl-phenyl)-quinazolin-4-yl]-amine] | 0.1 to 1 | < 0.1
Fc1ccc2[nH]nc(Nc3nc(-c4ccccc4Cl)nc4ccccc34)c2c1 [II-75, [2-(2-Chloro-phenyl)-quinazolin-4-yl]-(5-fluoro-1H-indazol-3-yl)-amine] | 1 to 20 | < 0.1
Fc1cc(F)c2[nH]nc(Nc3nc(-c4ccccc4Cl)nc4ccccc34)c2c1 [II-76, [2-(2-Chloro-phenyl)-quinazolin-4-yl]-(5,7-difluoro-1H-indazol-3-yl)-amine] | 1 to 20 | < 0.1
FC(F)(F)c1ccc2[nH]nc(Nc3nc(-c4ccccc4Cl)nc4ccccc34)c2c1 [II-77, [2-(2-Chloro-phenyl)-quinazolin-4-yl]-(5-trifluoromethyl-1H-indazol-3-yl)-amine] | 0.1 to 1 | < 0.1
N#Cc1ccccc1-c1nc(Nc2n[nH]c3ccccc23)c2ccccc2n1 [II-78, [2-(2-cyano-phenyl)-quinazolin-4-yl]-(1H-indazol-3-yl)-amine] | 1 to 20 | < 0.1
FC(F)(F)c1ccccc1-c1nc(Nc2n[nH]c3ccc(Br)cc23)c2ccccc2n1 [II-79, (5-Bromo-1H-indazol-3-yl)-[2-(2-trifluoromethyl-phenyl)-quinazolin-4-yl]-amine] | 0.1 to 1 | < 0.1
FC(F)(F)c1ccccc1-c1nc(Nc2n[nH]c3cc(Cl)ccc23)c2ccccc2n1 [II-80, (6-Chloro-1H-indazol-3-yl)-[2-(2-trifluoromethyl-phenyl)-quinazolin-4-yl]-amine] | 1 to 20 | < 0.1
FC(F)(F)c1ccccc1-c1nc(Nc2n[nH]c3cc(Br)ccc23)c2ccccc2n1 [II-82, (6-Bromo-1H-indazol-3-yl)-[2-(2-trifluoromethyl-phenyl)-quinazolin-4-yl]-amine] | 1 to 20 | < 0.1
COc1cccc2c(Nc3n[nH]c4ccccc34)nc(-c3ccccc3C(F)(F)F)nc12 [II-90, (1H-Indazol-3-yl)-[8-methoxy-2-(2-trifluoromethyl-phenyl)-quinazolin-4-yl]-amine] | 1 to 20 | < 0.1
